Source: patent US12370263B2, “Cyclic dinucleotide derivative based antibody-drug conjugates” (DAIICHI SANKYO COMPANY, LIMITED, priority 2018, dated 2025)

How the values were obtained:
[1] = biological target: T1, HisAviTEV-hSTING (139-342) human wild-type protein (Homo sapiens, UniProt Q86WV6, H232R); experiment: Protein thermal shift assay, STING C-terminal binding domain protein; conditions: test compound final concentration 0.5 mM
T1 construct: made in house; host or cells: E. coli Rosetta 2 (DE3), co-expressed with BirA (1-321)
T1 sequence (Q86WV6 with tags, fused parts or gaps H232R): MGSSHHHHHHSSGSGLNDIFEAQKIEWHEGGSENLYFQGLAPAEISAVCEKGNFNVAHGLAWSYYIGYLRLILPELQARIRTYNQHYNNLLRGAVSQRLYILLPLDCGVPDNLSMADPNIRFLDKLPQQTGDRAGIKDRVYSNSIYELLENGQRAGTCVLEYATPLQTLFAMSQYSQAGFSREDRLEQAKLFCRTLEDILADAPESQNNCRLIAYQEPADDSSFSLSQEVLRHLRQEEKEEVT

Human STING = Human STING (Homo sapiens, UniProt Q86WV6, G230A/H232R/R293Q/R71H); experiment: Reporter gene assay, human STING agonist activity, THP1-Dual cells (HAQ-mutated), IRF pathway; conditions: THP1-Dual cells IRF EC50, THP1-Dual cells (HAQ-mutated), 24 hours; 100% = maximum count with ML-RR-CDA·2Na+
Sequence of Human STING (Q86WV6 whole entry R71H/G230A/H232R/R293Q, the tested form may be a part): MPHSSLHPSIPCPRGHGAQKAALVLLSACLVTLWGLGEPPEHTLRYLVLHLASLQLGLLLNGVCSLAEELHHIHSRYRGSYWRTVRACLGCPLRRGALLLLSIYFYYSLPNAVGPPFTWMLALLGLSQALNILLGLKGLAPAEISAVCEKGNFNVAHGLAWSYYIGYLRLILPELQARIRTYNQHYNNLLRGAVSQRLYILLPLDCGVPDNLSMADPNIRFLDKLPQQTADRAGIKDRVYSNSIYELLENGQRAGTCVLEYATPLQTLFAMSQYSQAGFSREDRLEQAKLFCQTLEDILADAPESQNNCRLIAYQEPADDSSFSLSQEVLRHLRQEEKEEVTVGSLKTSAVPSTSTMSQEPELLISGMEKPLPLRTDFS

[2] = biological target: T2, His-Avi-TEV-mSTING (138-341) mouse wild-type protein (Mus musculus, UniProt Q3TBT3); experiment: Protein thermal shift assay, STING C-terminal binding domain protein; conditions: test compound final concentration 0.5 mM
T2 construct: made in house; host or cells: E. coli Rosetta 2 (DE3), co-expressed with BirA (1-321)
T2 sequence (Q3TBT3 with tags, fused parts or gaps limits assumed): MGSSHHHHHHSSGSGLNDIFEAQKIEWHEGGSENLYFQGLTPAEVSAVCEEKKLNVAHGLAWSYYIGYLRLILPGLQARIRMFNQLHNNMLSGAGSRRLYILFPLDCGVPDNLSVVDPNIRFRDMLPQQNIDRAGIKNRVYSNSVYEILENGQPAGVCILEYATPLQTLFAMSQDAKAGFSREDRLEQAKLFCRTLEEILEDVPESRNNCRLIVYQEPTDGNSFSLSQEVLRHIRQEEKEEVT
Method: Each of these expression strains was added to a TB medium containing 100 μg/mL ampicillin, 50 μg/mL streptomycin, and 30 μg/mL kanamycin, cultured at 37° C., then exposed to 100 μM IPTG for inducible expression, and further cultured at 16° C.
The culture solution was centrifuged, and the resulting bacterial cells were suspended in 50 mM HEPES pH 8.0, 500 mM NaCl, 20 mM imidazole, 1 mM DTT, 5% (w/v) glycerol, Complete EDTA free, and then subjected to freeze-thawing. After addition of Lysozyme and DNase I, proteins were extracted by ultrasonic disintegration, and centrifugation was performed and the resulting supernatant was collected. The supernatant obtained was purified by using an AKTA express chromatography system (GE Healthcare, IL, US) with a HisTrap FF column (GE Healthcare), and eluted with buffer (20 mM HEPES pH 7.5, 120 mM NaCl, 20% Glycerol, 0.8 mM DTT) through a Superdex 200 16/60 column (GE Healthcare). […] The protein concentrations were measured by using a NanoDrop2000 (Thermo Fisher Scientific, MA, US), and the proteins were cryopreserved at −80° C. until use.
The binding ability of each compound to the STING C-terminal binding domain proteins was evaluated by protein thermal shift assay, which uses the elevation of thermal denaturation temperature of protein as an index.
Specifically, 3 μL of a test compound (final concentration: 0.5 mM), 3 μL of SYPRO Orange Protein Gel Stain (Thermo Fisher Scientific) (final concentration: 20-fold), and 6 μL of a STING protein were mixed with use of assay buffer (20 mM Tris-HCl pH 7.5, 120 mM NaCl) in a 384-well real-time PCR plate, and mixed together with a plate shaker. With a real-time PCR system (Thermo Fisher Scientific), the temperature was increased from 25° C. to 95° C. at a rate of 0.03° C./sec, and the thermal denaturation temperature of the protein was measured by using fluorescence emitted from SYPRO Orange as an index. From the measurement acquired, Tm (the midpoint of the unfolding transition) (° C.) was determined as a temperature at which the increase rate of fluorescence intensity was maximized by using the analysis software Protein Thermal Shift software (Thermo Fisher Scientific). The Tm value for a well with no compound was subtracted from the Tm value for each test compound to calculate the Tm shift caused by the compound as ΔTm (° C.).

CT26.WT cells = experiment: Anti-Tumor Test (1), intratumoral administration; type: in vivo, BALB/c mouse; conditions: 10 μg intratumorally on Day 7, 9, and 11; CT26.WT in BALB/c mice; FIGS. 7a and 7b
Method: Mice: Before use for experiment, 5-week-old female BALB/c mice (BALB/cAnNCrlCrlj) (Charles River Laboratories Japan, Inc.) were habituated under SPF conditions for 4 days or longer.
Measurement, calculation formula: In all the studies, the major axis and minor axis of a tumor were measured twice or three times per week by using an electronic digital caliper (CD15-CX, Mitutoyo Corporation) to calculate tumor volume (mm^3). The calculation formula is as follows. Tumor volume (mm^3)=0.5×Major axis (mm)×[Minor axis (mm)]^2
Each test compound was diluted with physiological saline (Otsuka Pharmaceutical Factory, Inc.) for use. In administration of it, 50 μL was intratumorally administered.
Cells of the mouse colorectal cancer cell line CT26.WT (CRL2638) purchased from the American Type Culture Collection were used. CT26.WT cells were suspended in physiological saline, 1.0×10^6 cells were subcutaneously transplanted into the right axilla of each BALB/c mouse (Day 0), and 7 days thereafter the mice were randomly grouped. Each test compound in a dose of 10 μg was intratumorally administered on Day 7, 9, and 11, three times in total. A group with administration of physiological saline was set as a group with a vehicle. The number of mice in each group was five or six.

[3] = biological target: T3, HisAviTEV-hSTING (139-342) human REF-mutated protein (Homo sapiens, UniProt Q86WV6); experiment: Protein thermal shift assay, STING C-terminal binding domain protein; conditions: test compound final concentration 0.5 mM
T3 construct: made in house; host or cells: E. coli Rosetta 2 (DE3), co-expressed with BirA (1-321)
T3 sequence (Q86WV6 with tags, fused parts or gaps, change not shown): as the sequence (Q86WV6 with tags, fused parts or gaps H232R) above, with R133H counted along it

[4] = biological target: T4, HisAviTEV-hSTING (139-342) human AQ-mutated protein (Homo sapiens, UniProt Q86WV6, G230A/H232R/R293Q); experiment: as above; conditions: test compound final concentration 0.5 mM
T4 construct: made in house; host or cells: E. coli Rosetta 2 (DE3), co-expressed with BirA (1-321)
T4 sequence (Q86WV6 with tags, fused parts or gaps G230A/H232R/R293Q): as the sequence (Q86WV6 with tags, fused parts or gaps H232R) above, with G131A, R194Q counted along it

CT26.WT-hHER2 cells = experiment: Anti-Tumor Test (6); type: in vivo, BALB/c mouse; conditions: 1.2 μg (equivalent of the conjugate's CDN component) into the tail vein on Day 7, once; CT26.WT-hHER2 in BALB/c mice
Method: Each antibody-CDN conjugate was diluted with acetate buffer (10 mM Acetate Buffer, 5% Sorbitol, pH 5.5) (NACALAI TESQUE, INC.) for use. In administration of it, 200 μL was administered into the tail vein.
CT26.WT-hHER2 cells were suspended in physiological saline, 5.0×10^6 cells were subcutaneously transplanted into the right axilla of each BALB/c mouse (Day 0), and 7 days thereafter the mice were randomly grouped. Each specimen for administration was administered into the tail vein on Day 7, once in total. A group with administration of acetate buffer was set as a group with a vehicle. The number of mice in each group was five.

| Compound | ΔTm at 500 µM [1] [°C] | EC50 (Human STING) [µM] | ΔTm at 500 µM [2] [°C] | tumor growth (tumor volume) (CT26.WT cells) | ΔTm at 500 µM [3] [°C] | ΔTm at 500 µM [4] [°C] | tumor growth (tumor volume) (CT26.WT-hHER2 cells) |
| --- | --- | --- | --- | --- | --- | --- | --- |
| O=c1c2ncn([C@@H]3O[C@@H]4COP(=O)(S)O[C@H]5[C@@H](O)[C@H](n6cc7c8c(ncnc86)NCCC7)O[C@@H]5COP(=O)(S)O[C@@H]3[C@@H]4O)c2ncn1CCO (single isomer, unassigned) [6a] | 10.6 | 0.6 | 15.7 | significantly suppressed | 5.7 | 14.8 | – |
| NCCNc1nc(N)c2ncn([C@@H]3O[C@@H]4COP(=O)(S)O[C@H]5[C@@H](O)[C@H](n6cc7c8c(ncnc86)NCCC7)O[C@@H]5COP(=O)(S)O[C@@H]3[C@@H]4O)c2n1 (single isomer, unassigned) [8b] | – | 6.6 | – | significantly suppressed | – | – | not suppressed |
